Measurements from patent publication US20250162973A1, “METHODS OF SYNTHESIS AND USES OF AGRIMOL COMPOUNDS” (Versitech Limited, priority 2022, published 2025).
Where two headings read alike, the source gives them in different places.

Columns and labels:
AGS cell line = assay: MTT cell viability assay; format: cell-based, human; settings: Homo sapiens, AGS; MTT method, 48 h
Description: (§1) SUNE1 (nasopharyngeal carcinoma), AGS (gastric adenocarcinoma), HeLa (cervix adenocarcinoma), HepG2 (hepatocellular carcinoma), U-87 MG (human glioblastoma cell), U2OS (osteosarcoma), MCF-7 (breast adenocarcinoma), MDA-MB-231 (breast adenocarcinoma), HCT116 (colorectal carcinoma), SW480 (colorectal adenocarcinoma), NCI-H460 (large cell lung carcinoma), NCI-H1650 (adenocarcinoma lung carcinoma), HCC827 (adenocarcinoma lung carcinoma), A549 (lung carcinoma), and CCD-19Lu (human lung fibroblast normal cell) were all obtained from American Type Culture Collection (ATCC, Manassas, VA, USA). Minimum Essential Media (MEM, Gibco®, ThermoFisher Scientific), Dulbecco's Modified Eagle Medium (DMEM, Gibco®, ThermoFisher Scientific), and RPMI-1640 Medium (Gibco®, ThermoFisher Scientific) supplemented with 10% Fetal Bovine Serum (Gibco®, ThermoFisher Scientific), and 100 U/mL penicillin-streptomycin (Gibco™, ThermoFisher Scientific) were used for cell culture. Cells were placed into an incubator with 5% CO2 that temperature was set at 37° C. For subculturing cells, 0.05% Trypsin-EDTA (Gibco®) was used for detaching and a subcultivation ratio of 1:5 was used.
(§2) The cell viability assay was performed by a typical MTT assay. Briefly, 5*10^3 cells were seeded in the 96-well flat bottom plate and allowed to attach overnight. After drug treatment with a serial dilution from 100 μM for 48 h, 10 μL of MTT solution (5 mg/ml prepared in PBS, filtered) was added into each well and incubate for 4 h at 37° C. The formed formazan was then dissolved with SDS solution (10% SDS in 10 mM HCl) and followed the determination of absorbance at 590 nm by a microplate reader. The change in cell viability was then calculated for each drug concentration, then normalized to control. Dose response curves from each assay were fit to a Boltzmann sigmoidal function (GraphPad Prism8, version8.0.0). The cytotoxicity of AGB and its derivatives was determined by the calculation of IC50 value (half maximal inhibitory concentration) from fitted curves, which was the concentration of drug induced 50% cell viability.

H460 cell line = assay: MTT cell viability assay; format: cell-based, human; settings: Homo sapiens, NCI-H460
Description: as §1, §2

HeLa cell line = assay: MTT cell viability assay; format: cell-based, human; settings: Homo sapiens, HeLa; MTT method, 48 h; read-out: IC50 HeLa cell line
Description: as §1, §2

MDA-MB-231 cell line = assay: MTT cell viability assay; format: cell-based, human; settings: Homo sapiens, MDA-MB-231; MTT method, 48 h
Description: as §1, §2

NCI-H460 cells = assay: Cell colony formation (clonogenic) assay; format: cell-based, human
Description: For the colony formation assay, cells were treated with indicated concentrations of AGB for 8 h, then AGB was then removed and 200 cells were trypsinized and seeded into a new 12-well cell culture plate containing 1.5 ml of complete cell growth medium. After cells were grown for 14 days, cells were then fixed with ethanol followed a staining by crystal violet (0.05%, w/v, in water) for 15 min. The cell colonies were captured under the microscope and the number of colonies was calculated by ImageJ (version 1.50i, NIH, USA, internet site imagej.nih.gov).

HSP60 = HSP60 (Homo sapiens, UniProt P10809); assay: MDH refolding assay (chaperone function); format: biochemical; settings: pre-incubation of Hsp60 with AGB
Chain of HSP60 (P10809 27-573): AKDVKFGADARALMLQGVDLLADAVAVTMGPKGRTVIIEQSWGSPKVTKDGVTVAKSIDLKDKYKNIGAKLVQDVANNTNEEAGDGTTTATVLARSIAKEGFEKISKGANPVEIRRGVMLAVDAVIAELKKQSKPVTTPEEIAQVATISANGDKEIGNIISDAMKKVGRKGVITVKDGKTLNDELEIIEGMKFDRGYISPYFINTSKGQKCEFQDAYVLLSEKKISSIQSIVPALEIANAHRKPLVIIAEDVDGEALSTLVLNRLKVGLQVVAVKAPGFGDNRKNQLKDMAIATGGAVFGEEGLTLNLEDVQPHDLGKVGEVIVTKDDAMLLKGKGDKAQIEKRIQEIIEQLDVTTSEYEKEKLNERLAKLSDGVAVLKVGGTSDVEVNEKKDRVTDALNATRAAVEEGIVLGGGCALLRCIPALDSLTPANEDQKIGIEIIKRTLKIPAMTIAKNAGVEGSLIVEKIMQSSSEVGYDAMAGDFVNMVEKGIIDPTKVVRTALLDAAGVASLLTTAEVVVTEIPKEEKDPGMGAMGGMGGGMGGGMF
Excerpt: The function of HSP60 is mainly for its chaperone activity. HSP60 cooperates with co-chaperonin HSP10 to perform the misfolded proteins refolding and reactivate. Mitochondrial malate dehydrogenase (MDH), one of HSP60 substrates, was examined for the inhibition of chaperone function by AGB.

CS = molecular target: T1, CS (Homo sapiens, UniProt O75390); assay: CS catalytic activity; format: biochemical; settings: dose-dependent
T1 sequence (O75390 28-466): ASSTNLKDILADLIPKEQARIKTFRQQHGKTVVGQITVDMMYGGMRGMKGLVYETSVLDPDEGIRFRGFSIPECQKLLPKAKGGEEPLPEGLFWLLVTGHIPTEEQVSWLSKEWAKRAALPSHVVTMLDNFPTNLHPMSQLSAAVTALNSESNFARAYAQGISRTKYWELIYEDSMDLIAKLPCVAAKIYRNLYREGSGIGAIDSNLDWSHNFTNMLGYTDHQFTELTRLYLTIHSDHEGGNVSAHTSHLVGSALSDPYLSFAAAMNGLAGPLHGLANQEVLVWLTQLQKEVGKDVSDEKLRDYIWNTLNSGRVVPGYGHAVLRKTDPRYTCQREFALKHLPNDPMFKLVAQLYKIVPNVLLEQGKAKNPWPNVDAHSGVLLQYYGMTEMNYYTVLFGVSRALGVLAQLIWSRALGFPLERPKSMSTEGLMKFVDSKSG
Excerpt: CS is localized within the mitochondrial matrix and is the key enzyme in the first step of the tricarboxylic acid (TCA) cycle that catalyzes the reaction between acetyl coenzyme A (acetyl CoA) and oxaloacetic acid to form citric acid. […] CS is responsible for the production of citrate in the TCA cycle that mediates mitochondrial aerobic respiration to affect the production of ATP production. Targeting at CS may be feasible to restore the abnormal expression of TCA cycle.

TALDO1 = molecular target: T2, TALDO1 (Homo sapiens, UniProt P37837); assay: Targeted metabolomics of PPP intermediates and intracellular NADPH; format: cell-based; settings: after treatment of AGB
T2 construct: endogenous in cells
T2 sequence (P37837 1-337): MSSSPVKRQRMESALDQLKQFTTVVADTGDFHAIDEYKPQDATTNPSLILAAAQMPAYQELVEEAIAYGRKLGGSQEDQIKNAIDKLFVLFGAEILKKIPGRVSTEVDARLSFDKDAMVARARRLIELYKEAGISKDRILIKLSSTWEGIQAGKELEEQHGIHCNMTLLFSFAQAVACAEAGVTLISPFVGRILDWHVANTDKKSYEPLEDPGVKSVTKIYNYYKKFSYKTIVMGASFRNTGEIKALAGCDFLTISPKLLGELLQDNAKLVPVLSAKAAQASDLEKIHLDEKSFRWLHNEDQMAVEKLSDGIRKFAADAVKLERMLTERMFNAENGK
Description: TALDO1 is a key enzyme of the nonoxidative PPP providing ribose-5-phosphate for nucleic acid synthesis and NADPH (the reduced form of Nicotinamide adenine dinucleotide phosphate) for lipid biosynthesis. Targeted metabolomics analysis was performed for measuring of the intermediate metabolites involved in the PPP pathway. […] PPP activation has been widely found in different types of cancer because of the uncontrolled proliferation of cancer cells. […] Moreover, enhanced production of NADPH is crucial to increase the intracellular redox power of cancer cells to escape from oxidative stress.

## CCCC(=O)c1c(O)c(Cc2c(O)c(Cc3c(O)c(C)c(OC)c(C(=O)CCC)c3O)c(O)c(C(=O)[C@@H](C)CC)c2O)c(O)c(C)c1OC [AGB, Agrimol B]
AGS cell line
  IC50: 2650 nM
H460 cell line; MTT method, 48 h, read-out: IC50 H460 cell line
  IC50: 1850 nM
H460 cell line; for 48 h, cell line not given, read-out: IC50 value of AGB
  IC50: 2300 nM
HeLa cell line
  IC50: 810 nM
MDA-MB-231 cell line
  IC50: 2160 nM
NCI-H460 cells; 8 h treatment, colonies counted after two weeks
  AGB concentration over which colonies numbers were significantly reduced: over 2.5 μM
NCI-H460 cells; clonogenicity assay
  concentration giving significant reduction of cell colony formation: around 4 μM
HSP60
  MDH refolding activities: concentration-dependent inhibition
CS
  AGB concentration at which a significant decrease in the enzyme activity was observed: 5 µM
TALDO1
  PPP intermediate metabolites: significantly decreased
  intracellular content of NADPH: significant decrease
